Results taken from patent US6911446B2, “Methods of modulating serine/threonine protein kinase function with quinazoline-based compounds” (Sugen, Inc., priority 1997, dated 2005).

What was measured:
[1] = biological target: T1, RAF-1 (Homo sapiens, UniProt P04049); assay: RAF-1 ELISA phosphorylation assay (RAF-catalyzed phosphorylation of MEK and MAPK); type: biochemical; conditions: RAF-1 phosphorylation assay, lysates from RAS/RAF infected Sf9 cells, substrates T-MEK and His-MAPK
T1 construct: made in house; host or cells: Sf9 (Spodoptera frugiperda) cells co-infected with RAS and RAF recombinant baculoviruses
Excerpt: The following assay reports the amount of RAF-catalyzed phosphorylation of its target protein MEK as well as MEK's target MAPK. The RAF gene sequence is described in Bonner et al., 1985, Molec. Cell. Biol. 5: 1400-1407, and is readily accessible in multiple gene sequence data banks. Construction of the nucleic acid vector and cell lines utilized for this portion of the invention are fully described in Morrison et al., 1988, Proc. Natl. Acad. Sci. USA 85: 8855-8859.
• 1. Sf9 (Spodoptera frugiperda) cells; GIBCO-BRL, Gaithersburg, Md. • 2. RIPA buffer: 20 mM Tris/HCl pH 7.4, 137 mM NaCl, 10% glycerol, 1 mM PMSF, 5 mg/L Aprotenin, 0.5% Triton X-100; • 3. Thioredoxin-MEK fusion protein (T-MEK): T-MEK expression and purification by affinity chromatography were performed according to the manufacturer's procedures. Catalog#K 350-01 and R 350-40, Invitrogen Corp., San Diego, Calif. • 4. His-MAPK (ERK 2); His-tagged MAPK was expressed in XL1 Blue cells transformed with pUC18 vector encoding His-MAPK. His-MAPK was purified by Ni-affinity chromatography. Cat#27-4949-01, Pharmacia, Alameda, Calif., as described herein. • 5. Sheep anti mouse IgG: Jackson laboratories, West Grove, Pa. Catalog, #515-006-008, Lot#28563 • 6. RAF-1 protein kinase specific antibody: URP2653 from UBI. • 7. Coating buffer: PBS; phosphate buffered saline, GIBCO-BRL, Gaithersburg, Md. • 8. Wash buffer: TBST-50 mM Tris/HCL pH 7.2, 150 mM NaCl, 0.1% Triton X-100 • 9. Block buffer: TBST, 0.1% ethanolamine pH 7.4 • 10. DMSO, Sigma, St. Louis, Mo. • 11. Kinase buffer (KB): 20 mM Hepes/HC1 pH 7.2, 150 mM NaCl, 0.1% Triton X-100, 1 mM PMSF, 5 mg/L Aprotenin, 75 μM sodium ortho vanadate, 0.5 MM DTT and 10 mM MgCl2. • 12. ATP mix: 100 mM MgCl2, 300 μM ATP, 10 μCi γ-^33P ATP (Dupont-NEN)/mL. • 13 Stop solution: 1% phosphoric acid; Fisher, Pittsburgh, Pa. • 14. Wallac Cellulose Phosphate Filter mats; Wallac, Turku, Finnland. • 15. Filter wash solution: 1% phosphoric acid, Fisher, Pittsburgh, Pa. • 16. Tomtec plate harvester, Wallac, Turku, Finnland. • 17. Wallac beta plate reader #1205, Wallac, Turku, Finnland. • 18. NUNC 96-well V bottom polypropylene plates for compounds Applied Scientific Catalog #AS-72092. Procedure
All of the following steps were conducted at room temperature unless specifically indicated. • 1. ELISA plate coating: ELISA wells are coated with 100 μL of Sheep anti mouse affinity purified antiserum (1 μg/100 μL coating buffer) over night at 4° C. ELISA plates can be used for two weeks when stored at 4° C. • 2. Invert the plate and remove liquid. Add 100 μL of blocking solution and incubate for 30 min. • 3. Remove blocking solution and wash four times with wash buffer. Pat the plate on a paper towel to remove excess liquid. • 4. Add 1 μg of antibody specific for RAF-1 to each well and incubate for 1 hour. Wash as described in step 3. • 5. Thaw lysates from RAS/RAF infected Sf9 cells and dilute with TBST to 10 μg/100 μL. Add 10 μg of diluted lysate to the wells and incubate for 1 hour. Shake the plate during incubation. Negative controls receive no lysate. Lysates from RAS/RAF infected Sf9 insect cells are prepared after cells are infected with recombinant baculoviruses at a MOI of 5 for each virus, and harvested 48 hours later. The cells are washed once with PBS and lysed in RIPA buffer. Insoluble material is removed by centrifugation (5 min at 10,000×g). Aliquots of lysates are frozen in dry ice/ethanol and stored at −80° C. until use. • 6. Remove non-bound material and wash as outlined above (step 3). • 7. Add 2 μg of T-MEK and 2 μg of His-MAEPK per well and adjust the volume to 40 μL with kinase buffer. Methods for purifying T-MEK and MAPK from cell extracts are provided herein by example. • 8. Predilute compounds (stock solution 10 mg/mL DMSO) or extracts 20 fold in TBST plus 1% DMSO. Add 5 μL of the prediluted compounds/extracts to the wells described in step 6. Incubate for 20 min. Controls receive no drug. • 9. […]

[2] = system: NIH-3T3 cells expressing RAF-1; assay: Growth of NIH-3T3 cells expressing RAF-1; type: cell-based; conditions: Mus musculus, NIH3T3; growth of NIH-3T3 cells overexpressing RAF
Excerpt: The following assay measures growth rates for NIH-3T3 cells expressing RAF-1. The protocol for the assay is described in detail in PCT Publication WO9640116, filed Jun. 5, 1996, by Tang et al., and entitled “Indolinone Compounds for the Treatment of Disease,” incorporated herein by reference in its entirety, including any drawings.

T1 sequence (P04049 whole entry): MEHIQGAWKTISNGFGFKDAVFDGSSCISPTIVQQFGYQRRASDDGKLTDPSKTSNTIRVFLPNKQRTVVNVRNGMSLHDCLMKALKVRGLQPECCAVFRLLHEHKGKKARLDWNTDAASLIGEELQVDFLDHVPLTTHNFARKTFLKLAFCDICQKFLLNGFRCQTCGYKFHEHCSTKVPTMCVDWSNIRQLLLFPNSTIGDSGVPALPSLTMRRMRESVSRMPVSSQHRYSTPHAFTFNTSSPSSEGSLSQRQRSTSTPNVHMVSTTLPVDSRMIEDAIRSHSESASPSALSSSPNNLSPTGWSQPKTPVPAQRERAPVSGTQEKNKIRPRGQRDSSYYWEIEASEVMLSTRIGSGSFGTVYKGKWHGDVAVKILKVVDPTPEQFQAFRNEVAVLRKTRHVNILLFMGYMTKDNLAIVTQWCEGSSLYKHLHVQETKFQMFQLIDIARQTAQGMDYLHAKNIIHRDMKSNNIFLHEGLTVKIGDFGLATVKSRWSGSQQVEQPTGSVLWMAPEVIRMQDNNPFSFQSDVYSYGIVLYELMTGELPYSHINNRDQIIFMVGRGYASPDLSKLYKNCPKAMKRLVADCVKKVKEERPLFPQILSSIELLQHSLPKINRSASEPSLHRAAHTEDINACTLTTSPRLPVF

Row | Structure (SMILES) | IC50 [1] | IC50 [2]
1 | COc1ccc(Oc2cccc3nc(N)nc(N)c23)cc1 [Compound A-6, 2,4-Diamino-5-(4-methoxyphenoxy)quinazoline] | 0.8 µM | 
2 | Nc1ncnc2cccc(Oc3ccc(OCc4ccccc4)cc3)c12 [Compound A-28, 4-Amino-5-(4-benzyloxyphenoxy)quinazoline] | 0.3 µM | 
3 | COc1ccccc1Oc1cccc2nc(N)nc(N)c12 [Compound A-22, 2,4-Diamino-5-(2-methoxyphenoxy)quinazoline] | 20 µM | 
4 | Nc1nc(N)c2c(Oc3ccc(F)cc3)cccc2n1 [Compound A-7, 2,4-Diamino-5-(4-fluorophenoxy)quinazoline] | 5.8 µM | 1700 nM
5 | Nc1nc(N)c2c(Oc3ccccc3)cccc2n1 [Compound A-1, 2,4-Diamino-5-phenoxyquinazoline] | 0.3 µM | 160 nM
6 | COc1cccc(Oc2cccc3nc(N)nc(N)c23)c1 [Compound A-23, 2,4-Diamino-5-(3-methoxyphenoxy)quinazoline] | 6.4 µM | 
7 | CC(C)(C)c1ccc(Oc2cccc3nc(N)nc(N)c23)cc1 [Compound A-8, 2,4-Diamino-5-(4-tert-butylphenoxy)quinazoline] | > 100 µM | 
8 | Cc1ccc(Oc2cccc3nc(N)nc(N)c23)cc1 [Compound A-9, 2,4-Diamino-5-(4-methylphenoxy)quinazoline] | 4.5 µM | 5900 nM
